Assay [1] concerns S. cerevisiae strain AD2Δ (native wild-type ScLDM). In words: Broth microdilution drug susceptibility assay (MIC80), host strain AD2Δ. It is filed as cell-based. The following applies: Saccharomyces cerevisiae; strain AD2Δ; 48 h, 30 °C, pH 6.8; mean (± SEM), n = 3; read-out: MIC80. The procedure: Yeast strains used in this study (Supplementary Table S1) were prepared using the AD2Δ strain of S. cerevisiae as a host, using an established protocol. AD2Δ is hypersensitive to xenobiotics due to the deletion of seven major ABC transporters, including those responsible for the efflux of azole drugs. It is also deleted of the PDR3 transcriptional regulator, but contains the gain-of-function Pdr1-3 transcriptional regulator mutation that leads to constitutive overexpression from the PDR5 locus.
(§1) Azole susceptibility was measured as the mean drug concentration required to inhibit 80% of yeast growth (MIC80) compared to a non-drug control, using a standard broth microdilution assay. Serial dilutions of short- (FLC and VCZ), medium- (VT-1161), and long-tailed (ITC and PCZ) azole drugs, and the control drugs micafungin (MCF) and amphotericin B (AMB), were prepared in a 96-well microtiter plate in complete synthetic media lacking uracil, buffered to pH 6.8 [34]. Control and test cells were seeded at an optical density of 600 nm (OD600) of 0.005 (~1.5 × 10^4 colony forming units). After incubation for 48 h at 30 °C with constant agitation (200 rpm), the OD600 nm of each well was measured using a Synergy 2 multi-mode plate reader (BioTek Instruments, Winooski, VT, USA). The experiment was repeated three times (a total of nine measurements for the response of each strain to each drug). GraphPad Prism 5.0 software was used for statistical analysis, using a one-way analysis of variance with a Bonferroni post-hoc test. The statistical significance of comparisons was accepted when p < 0.05.

Assay [2] has as its target T1, wild-type (AD3Δ) ScLDM6×His (Saccharomyces cerevisiae, UniProt P10614).
T1 construct: recombinant full-length C-terminal hexahistidine-tagged wild-type Saccharomyces cerevisiae LDM (ScLDM6×His); 6×His (hexahistidine) (C); made in house; host or cells: Saccharomyces cerevisiae strain AD3Δ ScErg11 (overexpression from the PDR5 locus, native ERG11 disrupted)
Put plainly: Type II azole binding to affinity purified wild-type ScLDM6×His. Conditions: for ΔAmax: type II binding. As for the experimental part:
Protein purification was carried out using established methods. In brief, a 12 L culture for each control and test strain was grown overnight in 1 L volumes of YPD medium (1% [w/v] yeast extract [BD Difco], 2% [w/v] peptone [BD Difco], and 2% [w/v] D-glucose) in baffled 3 L flasks at 30 °C, with constant agitation (140 rpm). Cells harvested by centrifugation were broken by bead-beating and crude membrane fractions obtained by differential centrifugation, as previously described. The protein concentration of the crude membranes was estimated using the Lowry assay, with bovine serum albumin (Thermo Fisher) used as the protein standard. The crude membranes (1 g at 2.5 mg/mL) were detergent-solubilized using 10× critical micelle concentration (CMC) n-decyl-β-D-maltoside (DM) (Anatrace, Maumee, OH, USA) in buffer containing 10% (w/v) glycerol, 250 mM NaCl, 20 mM Tris pH 7.5, 0.5 mM phenylmethanesulfonyl fluoride (PMSF), and 1 EDTA-free protease inhibitor pill (Roche, Basel, Switzerland) per 300 mL. When the protein was to be used to assess in vitro binding affinity for the test azoles, detergent solubilized ScLDM6×His recovered after centrifugation was affinity purified using a nickel-nitrilotriacetic acid (Ni-NTA)-agarose matrix (Qiagen). The bound ScLDM6×His was eluted from the matrix using an affinity purification buffer containing 50 mM L-histidine. The L-histidine was removed by washing the enzyme through centrifugal filtration, using a 50 kDa molecular-weight cut-off Amicon Ultra-4 filter (Sigma, Auckland, New Zealand).
The concentration of functional ScLDM6×His purified by the nickel affinity method was quantitated using the standard carbon monoxide (CO) binding method. Type II drug binding assays that measure absorbance changes due to ligand interactions with ScLDM6×His were performed for VCZ and ITC, using an established protocol. The peak429nm-trough410nm difference spectra plotted against azole concentration were used to generate drug binding curves. All calculations were performed using GraphPad Prism 5 Software.

The test system of assay [3] is S. cerevisiae strain AD3Δ ScErg11 I471T expressing ScLDM6×His I471T. Put plainly: Broth microdilution drug susceptibility assay (MIC80), strain AD3Δ ScErg11 I471T. Conditions: for MIC80: Saccharomyces cerevisiae, 48 h, 30 °C, pH 6.8, mean (± SEM), n = 3; for MIC80 / MIC80/Relative Amount of ScLDM6×His / fold-resistance based on the relative amount of recombinant enzyme compared with strain AD3Δ: strain I471T; for increased susceptibility compared with AD3Δ: strain AD3Δ ScErg11 I471T, not corrected for expression; for MIC80/Relative Amount of ScLDM6×His / fold-resistance based on the relative amount of recombinant enzyme compared with strain AD3Δ: relative expression 0.51. The assay is classed as cell-based, Saccharomyces cerevisiae. The procedure: (§2) The native ScERG11 gene in yeast cells containing mutant ScERG11-6×His constructs in the PDR5 locus was disrupted by homologous recombination with a cassette encoding the His1 selection marker and sequences homologous with the regions bordering the endogenous ScERG11 ORF to create strains AD3Δ ScErg11 Y140H, AD3Δ ScErg11 I471T and AD3Δ ScErg11Y140H I471T [43]. Transformants were selected on SD-His agar plates incubated at 30 °C for 48–72 h. Genomic DNA was extracted, and DNA sequencing as above was used to confirm deletion of the native ERG11. Strain AD3Δ ScErg11 (denoted as AD3Δ), which overexpresses wild-type ScLDM6×His from the PDR5 locus and has the native ScERG11 gene disrupted, was used as a control strain [43].
as §1

Assay [4] deals with wild-type and Y140F/H mutants of ScLDM6×His. Further details: method as in earlier work. The following applies: no significant differences, ref 5 (supplement; Sagatova et al. 2016); cited from earlier work.
Assay [5] relates to S. cerevisiae strain AD3Δ ScErg11 Y140H I471T expressing ScLDM6×His Y140H I471T. In words: Broth microdilution drug susceptibility assay (MIC80), strain AD3Δ ScErg11 Y140H I471T. It is filed as cell-based, Saccharomyces cerevisiae. The following applies: for MIC: Saccharomyces cerevisiae, strain Y140H + I471T, 48 h, 30 °C, pH 6.8, mean (± SEM), n = 3; for MIC80/Relative Amount of ScLDM6×His / fold-resistance based on the relative amount of recombinant enzyme compared with strain AD3Δ: strain Y140H+I471T, relative expression 0.41. The procedure: as §2, §1
A general note: In broth dilution the organism is exposed to a series of concentrations in liquid medium.

Assay [6] deals with C. albicans Darlington strain. Put plainly: Agarose disk diffusion assay, Darlington strain. It is filed as cell-based, Candida albicans. Conditions: for effect of Mdr1 inhibitor MCC1189 on azole susceptibility: MCC1189 at 6 µM in the assay medium; for effect of Cdr1p inhibitor RC21v3 on azole susceptibility: RC21v3 at 6 µM in the assay medium; for agarose diffusion susceptibility: no efflux pump inhibitor. The procedure: Agarose diffusion assays were carried out as described previously using the Darlington strain of C. albicans (Pfizer Ltd., Sandwich, UK) and the control C. albicans database strain SC5314, which is not resistant to azoles. The Cdr1p-specific inhibitor RC21v3 and the CaMdr1p-specific inhibitor MCC1189 (MicroCombiChem, Wiesbaden, Germany), included in the assay medium at 6 µM, were used to investigate the contribution of efflux pumps to azole resistance in the Darlington strain [49, 50, 51].

[7] abbreviates: wild-type (AD3Δ) ScLDM6×His, 2 µM enzyme, (± SEM), μM, read-out: [Azole]0.5.
[8] abbreviates: wild-type (AD3Δ) ScLDM6×His, (± SEM).
The mark [9] stands for this setting: wild-type ScLDM6×His, supplement, 'in the 0.5 μM range'.
Setting [10] is: wild-type enzyme, in the presence of 2 µM enzyme, read-out: IC50 from type II binding curves.

Read-outs that look alike come from different tables or passages of the source.

T1 sequence (P10614 whole entry, stated change not applied): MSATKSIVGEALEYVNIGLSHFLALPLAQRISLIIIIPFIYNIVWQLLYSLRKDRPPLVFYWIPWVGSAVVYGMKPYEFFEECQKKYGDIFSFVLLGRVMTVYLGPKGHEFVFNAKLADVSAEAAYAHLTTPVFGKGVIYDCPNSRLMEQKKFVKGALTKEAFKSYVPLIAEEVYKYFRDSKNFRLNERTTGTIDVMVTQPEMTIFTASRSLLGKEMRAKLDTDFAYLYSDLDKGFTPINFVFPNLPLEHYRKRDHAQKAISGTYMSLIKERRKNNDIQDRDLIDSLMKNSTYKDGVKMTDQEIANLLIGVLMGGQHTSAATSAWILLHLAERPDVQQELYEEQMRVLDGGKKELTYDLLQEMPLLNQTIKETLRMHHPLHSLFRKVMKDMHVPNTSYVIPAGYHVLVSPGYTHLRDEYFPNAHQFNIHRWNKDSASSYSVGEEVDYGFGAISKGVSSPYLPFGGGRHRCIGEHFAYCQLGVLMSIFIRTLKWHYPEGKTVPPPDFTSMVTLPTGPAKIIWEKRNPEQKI

One may read the MIC80 as an inhibitory concentration at the 80% level, which refers to growth in some studies and to a panel of isolates in others. As a reminder, the Kd is the free concentration of one partner at which half of the binding sites on the other are occupied at equilibrium, for simple one-to-one binding. As usually defined, the MIC is the lowest concentration that inhibits growth of the organism. With `C[C@@H](c1ncncc1F)[C@](O)(Cn1cncn1)c1ccc(F)cc1F` [VCZ, voriconazole], the MIC80 in assay [1] came out at 0.0375 µM. The IC50 in assay [2] (setting [7]) turned out to be 0.78 µM. In assay [2] (setting [8]), the ΔAmax is recorded as 0.10 (0.004), the Hill number is 1.85 (0.23) and the Kd is 0.62 µM. Also, the Kd in assay [2] (setting [9]) was around 0.5 µM. Further, the IC50 in assay [2] (setting [10]) fell in the range of 0.6 to 0.8 µM. Moreover, in assay [3], the MIC80 came out at 0.074 µM, the “increased susceptibility compared with AD3Δ” value stood at 1.2 fold, the “MIC80/Relative Amount of ScLDM6×His” value came out at 0.145 µM and the “fold-resistance based on the relative amount of recombinant enzyme compared with strain AD3Δ” value is reported as 1.6 ×. For the same molecule, in assay [4], the equilibrium dissociation constant (Kd) is around 0.5 µM. Besides, in assay [5], the MIC is 0.25 µM, the “MIC80/Relative Amount of ScLDM6×His” value came out at 0.609 µM and the “fold-resistance based on the relative amount of recombinant enzyme compared with strain AD3Δ” value is recorded as 6.5 ×. The “MIC80 higher than AD3Δ ScErg11 cells” value in assay [5] (strain AD3Δ ScErg11 Y140H I471T, not corrected for expression, p < 0.001) is “approximately 3 fold”. For the same molecule, the “MIC80 higher than cells overexpressing ScLDM6×His Y140H” value in assay [5] (strain AD3Δ ScErg11 Y140H I471T, p < 0.001) is 1.5 fold. Besides, in assay [6], the “effect of Mdr1 inhibitor MCC1189 on azole susceptibility” value is recorded as “did not alter the susceptibility”, the “effect of Cdr1p inhibitor RC21v3 on azole susceptibility” value is given as “did not alter the susceptibility” and the “agarose diffusion susceptibility” value is recorded as “resistant”.
For `CCC(C)n1ncn(-c2ccc(N3CCN(c4ccc(OCC5COC(Cn6cncn6)(c6ccc(Cl)cc6Cl)O5)cc4)CC3)cc2)c1=O` (stereo not drawn) [ITC, itraconazole], in assay [1], the MIC80 is 0.0735 µM. For the same molecule, the IC50 in assay [2] (setting [7]) came to 0.6 µM. Moreover, in assay [2] (setting [8]), the ΔAmax is on record as 0.08 (0.006), the Hill number is listed as 1.61 (0.22) and the Kd is 0.43 µM. The equilibrium dissociation constant (Kd) in assay [2] (setting [9]) is around 0.5 µM. In assay [2] (setting [10]), the IC50 is 0.6 to 0.8 µM. In addition, in assay [3], the MIC80 was determined as 0.102 µM, the “increased susceptibility compared with AD3Δ” value was 1.4 fold, the “MIC80/Relative Amount of ScLDM6×His” value was 0.2 µM and the “fold-resistance based on the relative amount of recombinant enzyme compared with strain AD3Δ” value turned out to be 1.4 ×. Further, the Kd in assay [4] was around 0.5 µM. For the same molecule, in assay [5], the MIC amounted to 0.108 µM, the “MIC80/Relative Amount of ScLDM6×His” value came to 0.263 µM and the “fold-resistance based on the relative amount of recombinant enzyme compared with strain AD3Δ” value amounted to 1.8 ×. The “resistance conferred, relative expression taken into account” value in assay [5] (ScLDM6×His Y140H I471T (0.41 of wild-type) vs AD3Δ) is recorded as 1.8 fold. Also, in assay [6], the “effect of Mdr1 inhibitor MCC1189 on azole susceptibility” value is reported as “no effect on susceptibility”, the “effect of Cdr1p inhibitor RC21v3 on azole susceptibility” value is “increased susceptibility” and the “agarose diffusion susceptibility” value is “resistant”.

The record behind these values is article PMC8621857, “Structural Insights into the Azole Resistance of the Candida albicans Darlington Strain Using Saccharomyces cerevisiae Lanosterol 14α-Demethylase as a Surrogate” (Journal of Fungi, 2021).
